Here are results for one compound from PubChem BioAssay AID720625 (Broad Institute, 2013).

This test deals with HRAS cells, caspase 3/7 apoptosis luminescence, multiple timepoints. Nature of the test: time-course apoptosis signal, HRAS cell line – caspase 3/7 luminescence, plate reader, dry powder, mechanism study for HRAS target identification (AID 720625).

Structures are written as SMILES. Records with an inconclusive call do not appear.

Consider `COc1ccc(N(C(=O)CCl)C(C(=O)NCCc2ccccc2)c2cccs2)cc1Cl` (centres undefined), for which the AC40 is 7.66 µM. The compound further gave an AC40 (measured here: timepoint 1) of 22.2 µM. The compound also yielded an AC40 (measured here: timepoint 2) of 0.177 µM. Moreover, where the note is “measured here: timepoint 3”, the AC40 was 0.551 µM.
